Reference: PMC11901438, “Synthesis and Evaluation of Boron-Containing Heterocyclic Compounds with Antimicrobial and Anticancer Activities” (Molecules, 2025)
Values after ≈ are worked out from the molar mass of the structure shown.

Legend:
[1] = test system: C. albicans ATCC 90028; test: Antifungal susceptibility test (CLSI M27-A3 microdilution, resazurin), MIC90; conditions: Candida albicans, ATCC90028, read-out: C. albicans ATCC 90028 MIC90
[2] = test system: T. rubrum (ATCC 1890, ATCC 18759); set-up: method as in PMID 17588934; conditions: cited from earlier work
[3] = test system: T. mentagrophytes (ATCC 28185); set-up: method as in PMID 17588934; conditions: cited from earlier work
[4] = test system: M. audouinii (ATCC 42558); set-up: method as in PMID 17588934; conditions: cited from earlier work
[5] = test system: M. gypseum (ATCC 24103); set-up: method as in PMID 17588934; conditions: cited from earlier work
[6] = test system: E. floccosum (ATCC 525066); set-up: method as in PMID 17588934; conditions: cited from earlier work
[7] = test system: T. mentagrophytes; set-up: method as in PMID 29371574; conditions: cited from earlier work
[8] = test system: T. rubrum; set-up: method as in PMID 29371574; conditions: cited from earlier work
[9] = set-up: method as in PMID 26640371; conditions: cited from earlier work

Compound	MIC90 [1] [nM]	MIC [2] [µg/mL]	MIC [3] [µg/mL]	MIC [4] [µg/mL]	MIC [5] [µg/mL]	MIC [6] [µg/mL]	MIC (fungistatic effects) [7] [µg/mL]	MIC (fungistatic effects) [8] [µg/mL]	rate of complete cure [9] [%]	rate of mycological cure [9]
CCC(C)n1ncn(-c2ccc(N3CCN(c4ccc(OCC5COC(Cn6cncn6)(c6ccc(Cl)cc6Cl)O5)cc4)CC3)cc2)c1=O (stereo not shown) [Itraconazole]	0.34 (≈ 0.24 ng/mL)	–	–	–	–	–	–	–	–	–
OB1OCc2cc(F)ccc21 [Tavaborole]	–	2.0 (≈ 13.2 µM)	2.0 (≈ 13.2 µM)	2.0 (≈ 13.2 µM)	2.0 (≈ 13.2 µM)	1.0 (≈ 6.58 µM)	8 (≈ 52.7 µM)	8 (≈ 52.7 µM)	≤ 10	up to 36%
